Test results from the NIST ThermoML archive (doi:10.1016/j.jct.2015.05.013).

Experiment: cn = amount concentration of the nth substance listed, in mol/dm3
Settings: 298.15 K, 101.3 kPa, Liquid, Taylor dispersion method

COC(=O)[C@@H](N)Cc1cnc[nH]1.Cl.Cl [methyl L-histidinate dihydrochloride] + O
Settings	binary diffusion coefficient [m2/s]
c1 = 0.001	1.05e-09
c1 = 0.005	1.01e-09
c1 = 0.01	9.82e-10
c1 = 0.02	9.6e-10
c1 = 0.05	9.21e-10
c1 = 0.1	8.61e-10
